According to patent US20040265350A1, “Use of a porous carrier” (priority 2000, published 2004):
“Also recorded” adds a separate entry of the source. One block for each molecule: values may come before it.

How the values were obtained:
[1] = Solubility seen while preparing loading solutions; assay type: physicochemical
Description: After drying the block in an oven overnight the vacuum method was again used to inject a solution of PLG (85:15) (0.105 g) in acetonitrile (50 cm^3). Again the block was oven dried overnight.

[2] = Leaching of Prednisolone from HA discs with or without PLG; assay type: physicochemical; details: presence of PLG (50:50)
Method: Serial dilution experiments were performed to obtain the following calibration chart and equation for Prednisolone. [formula]
Four HA discs from the second batch were used for these experiments. Approximately […] of Prednisolone was used in each of the acetonitrile solutions. The experiments were labelled 1AA, 1BB, 1CC and 1DD. 1M and 1BB were loaded by centrifugation and 1BB contained 0.1 g of PLG (50:50). 1CC and 1DD were loaded using the vacuum technique and 1DD contained 0.1 g of PLG (50:50). The standard leaching experiments were carried out and the results presented below. [formula]

[3] = Leaching of cis-platin from HA block into distilled water, absorbance at 206 nm; assay type: physicochemical
Method: No yellow colour was observed within the block.
Leaching experiments were carried out in distilled water (35 cm^3) with stirring, in the absence of light and closed to prevent evaporation. Absorbance was recorded at λ 206 nm at appropriate intervals and all caclulations required the extinction coefficient 3057 mol^−1 dm^3 cm^−1. [formula]

[4] = Leaching of [Fe(phen)3][ClO4]2 from HA blocks into distilled water, UV-Vis at 512 nm; assay type: physicochemical
Description: Leaching with stirring of solutions to avoid inaccuracies due to concentration gradients. (According to present arrangements however some anomalies may result from occasional jarring of the block by the magnetic follower).
Half of the block prepared in method 3 was immersed in distilled water (30 cm3) and the absorbance recorded by UV-Vis spectrometry at wavelength 512 nm. An extinction coefficient of 10,620 mol^−1 dm^3 cm^−1 was used in all calculations.
Vacuum method 3 was used for loading the compounds onto HA, again blocks of porosity 83.35% (0006) were used with approximate dimensions, 20×20×15mm, weight 3.6-3.8 g. […] […] Again the blocks were dried in the oven. (In order to fully dissolve the polymer in acetronitrile stirring for up to 1 hour is required before loading).
All leaching experiments were undertaken using the cut halves of the loaded blocks with distilled water (30 cm3) and constant stirring. […] This buoyancy is likely to be due to the polymer blocking pores in the HA trapping air inside the block. […] Again absorbance at λ 512 nm was recorded at appropriate intervals. [formula]

[5] = test system: human osteosarcoma like cells(HOS); assay: MTT assay of cell proliferation, HOS cells; assay type: cell-based
Description: (§1) Two osteosarcoma cell lines and primary human osteoblasts were used in the cell culture studies of the effect of increased MTX concentration and duration time. The MG63 cells were obtained from a […] (ATCC-CRL-1427). The human osteosarcoma like cells(HOS) cells were obtained from a […] (ATCC-CRL-1543). The human osteoblast like cells(HOB) were isolated from patients undergoing total knee replacement. The cell lines were each cultured in complete Dulbecco's Modified Eagle's Medium (DMEM) (Gibco, UK) supplemented with 10% foetal calf serum (FCS) (Gibco, UK), non essential amino acids (1%), ascorbic acid (150˜g/ml), L glutamine (0.02M), HEPES (0.01M), penicillin (100 units/ml) and streptomycin (100˜g/ml), at 37° C. and 5% CO2 in a 99% humidified sterile atmosphere. The medium was changed at least twice a week to prevent nutrient depletion-and waste product accumulation.
(§2) Once the cells had become confluent, they were removed by emptying the medium, washing with 10 ml PBS and adding 5 ml of 0.25% Trypsin and incubating at 37° C. […] Next the cells were counted under a light microscope and concentrations of 13.2×10^4 cells/ml made up. […]
(§3) The effects of MTX on the proliferation of ostersarcoma cells was measured by MTT assay. […] The absorbance of each well was then read by a Dynatech microplate reader (BioRad Model 3550) at a wavelength of 595 nm and 5 sec mixing time. […]

MG63 cells = assay: MTT assay of cell proliferation, MG63 cells; assay type: cell-based, human
Description: as §1, §2, §3

[6] = test system: human osteoblast like cells(HOB); assay: MTT assay of cell proliferation, HOB cells; assay type: cell-based
Description: as §1, §2, §3

[7] = Leaching of MTX from HA discs with or without PLG; assay type: physicochemical
Method: Initially the release of MTX from HA using the polymer PLG (75:25) was performed to establish whether this polymer {which is expected to degrade at a slower rate than PLG (50:50)} induced a slowed rate of release of MTX. HA discs from the second batch were used for the experiment and approximately the same quantities of MTX, PLG and acetonitrile were used. The experiment was labelled as follows; IA and IB were loaded by centrifugation and IB contains polymer, IC and ID were loaded by the vacuum technique and ID contains polymer. The following results-were obtained [formula]

osteoblast cells = details: 5 mM MTX; cited from earlier work
osteosarcoma cells = details: 5 mM MTX; cited from earlier work
[8] = block loaded with complex and PLG (50:50)
[9] = 1 day exposure, MTX 0.1 to 1000 μg/ml
[10] = 3 day exposure, same concentrations

Molecule: N.N.[Cl][Pt][Cl] [cis-platin]
time after which almost the entire drug / the majority is released from HA ([3]; no polymer, distilled water, stirring, dark): 45 min
effect of PLG on release of cis-platin from HA ([3]; presence of PLG (50:50)): slowed

Molecule: Iron(II) Tris Phenanthrolin Perchlorate [[Fe(phen)3][ClO4]2]
time after which almost all complex is released from the block ([4]; block loaded by vacuum method 3 from methanol, no polymer, distilled water, stirring): 170 min
effect of PLG impregnation on release of complex [4, 8]: dramatically slows the release
time at which continuing release of complex is still observed [4, 8]: > 5 days
effect of PLG impregnation on release of complex ([4]; block loaded with complex and PLG (50:50), listed as Iron Tris Phen): significantly slows the release
time after which approximately all / the majority of complex is released ([4]; control block loaded from acetonitrile, no PLG): 300 min
further quantity released after solution replaced with distilled water ([4]; method 3 block, replaced after 330 minutes, read after a further 20 hours): 0.14 mg
release profile of complex from the block ([4]; no polymer): two phases; also recorded: initial burst

Molecule: CN(Cc1cnc2nc(N)nc(N)c2n1)c1ccc(C(=O)N[C@@H](CCC(=O)O)C(=O)O)cc1 [MTX, Methotrexate]
cell proliferation (MTT) [5, 9]: only a small decrease in proliferation
cell proliferation (MTT) [5, 10]: reduced level of cell proliferation compared with the 1 day exposure samples
cell proliferation (MTT) (MG63 cells; MG63, 1 day exposure, MTX 0.1 to 1000 μg/ml): decrease in proliferation as MTX concentration rose
cell proliferation (MTT) (MG63 cells; MG63, 3 day exposure, rising MTX concentration): erratic behaviour; also recorded: affected only slightly
cell proliferation (MTT) [6, 9]: decrease in proliferation as MTX concentration rose
cell proliferation (MTT) [6, 10]: reduced level of cell proliferation compared with the 1 day exposure samples; also recorded: affected to a similar degree to the HOS cells
effect of PLG (50:50) on release of MTX from HA ([7]; presence of PLG (50:50), weighted discs): slower release rate
effect of PLG (75:25) on release of MTX from HA ([7]; presence of PLG (75:25)): does slow the release
decrease in proliferation of osteoblast cells (osteoblast cells): 30%
decrease in proliferation of osteosarcoma cells (osteosarcoma cells): 90%

Other lines, results leading:

solubility in methanol [1]: not soluble
solubility in water [1]: not soluble
Molecule: Poly(DL-Lactide-co-Glycolide) [PLG]

effect of polymer on release of Prednisolone from HA [2]: slowed
solubility in acetonitrile ([1]; acetonitrile): dissolves
Molecule: C[C@]12C=CC(=O)C=C1CC[C@@H]1[C@@H]2[C@@H](O)C[C@@]2(C)[C@H]1CC[C@]2(O)C(=O)CO [Prednisolone]
